Results: patent publication US20250145564A1, “SULFONYLUREA COMPOUND, PREPARATION METHOD THEREFOR, AND APPLICATION THEREOF” (SHANGHAI INSTITUTE OF MATERIA MEDICA, CHINESE ACADEMY OF …, priority 2021, published 2025)
pIC50: −log10 of the molar value.

How the values were obtained:
[1] = biological target: T1, sEH in cardiomyocytes (AC16) (Homo sapiens, UniProt P34913); assay: Inhibition assay on sEH in cardiomyocytes (14,15-EET/DHET ELISA); type: cell-based; conditions: AC16, 0.1, 1 and 10 μM, 24 hours; for content of DHET in cardiomyocytes / content of EETs in cardiomyocytes: compared with the control
T1 construct: endogenous in cells; host or cells: AC16 human cardiomyocyte cell line (ATCC)
T1 sequence (P34913 1-555): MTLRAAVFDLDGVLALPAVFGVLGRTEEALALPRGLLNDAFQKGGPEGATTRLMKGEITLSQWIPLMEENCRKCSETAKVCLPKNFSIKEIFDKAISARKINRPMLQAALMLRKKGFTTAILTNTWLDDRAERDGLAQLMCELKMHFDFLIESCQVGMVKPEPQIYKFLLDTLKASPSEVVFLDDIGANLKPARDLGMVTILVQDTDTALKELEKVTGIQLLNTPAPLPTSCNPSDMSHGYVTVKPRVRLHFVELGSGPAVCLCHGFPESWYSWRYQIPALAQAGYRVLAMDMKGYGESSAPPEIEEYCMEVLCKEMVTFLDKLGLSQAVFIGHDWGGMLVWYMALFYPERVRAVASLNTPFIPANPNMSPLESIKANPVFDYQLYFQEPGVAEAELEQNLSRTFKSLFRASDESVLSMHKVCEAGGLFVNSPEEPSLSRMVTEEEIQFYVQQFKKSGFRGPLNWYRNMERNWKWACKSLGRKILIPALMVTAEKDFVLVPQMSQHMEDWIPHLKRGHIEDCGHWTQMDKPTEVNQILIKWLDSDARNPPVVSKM
Procedure: (§1) Biomaterial sources: Human cardiomyocyte cell line AC16 was purchased from ATCC, USA. Phenylephrine (PE) was purchased from Sigma Company. AUDA was purchased from Cayman Company.
The compounds were dissolved in DMSO. The working concentrations were 0.1, 1 and 10 μM for the compounds of the present invention, 0.1, 1 and 10 μM for glimepiride, and 1 μM for AUDA. The incubation time was 24 hours.
(§2) The ELISA detection kit (BIOTARGET 14,15-EET/DHET ELISA KIT) from Detroit R&D company was used, and the experiment was conducted according to the instructions of the kit.
(§3) After 24 hours of incubation, cardiomyocytes were collected to perform the above detection.

[2] = system: PE induced cardiomyocyte remodeling (AC16); assay: Inhibitory effect on PE induced myocardial injury (BNP mRNA); type: cell-based, human; conditions: PE 100 μM, 24 hours; compounds 0.1, 0.5, 1 μM; glimepiride 10 μM
Procedure: as §1
PE was dissolved in disinfected deionized water with a working concentration of 100 μM. The compounds were dissolved in DMSO, and the working concentrations were 0.1, 0.5, 1 μM for the compounds of the present invention, 10 μM for glimepiride, and 1 μM for AUDA. The incubation time was 24 hours.
(§4) Total RNA was extracted using Invitrogen's Trizol reagent, then cDNA was obtained using TAKARA's reverse transcription kit, and finally the mRNA content of related genes was amplified with specific primers.
as §3

[3] = system: mice with chronic heart failure (TAC); assay: Anti-heart failure effect in vivo, TAC mouse model; conditions: for impaired cardiac function (EF value, FS value, dp/dt reduced by TAC): daily gavage 0.2 mg/kg and 0.4 mg/kg; for cross-sectional area of cardiomyocytes, HE staining (myocardial hypertrophy) / positive area of Sirius red staining (myocardial fibrosis): daily gavage eight weeks, I-1, I-23 0.2 and 0.4 mg/kg, glimepiride 1.2 mg/kg
Excerpt: (§5) 12-week-old male C57BL/6 mice, which were purchased from Gempharmatech Co., Ltd, were raised in the SPF animal house of Tongji Medical College, Huazhong University of Science and Technology. After one week of acclimatization in the animal house, the mice were subjected to thoracic aortic constriction as the TAC group. Another group of mice were subjected to thoracotomy without ligation of thoracic aorta as Sham group. Meanwhile, AUDA was used as the positive control.
(§6) Cardiac ultrasound detection was performed on a Visual Sonics Vevo 2100 small animal ultrasound imager. The major measurement indicators include heart rate (HR), left ventricular ejection fraction (LVEF), left ventricular fractional shortening (LVFS), left ventricular internal dimension-diastole (LVIDd) and left ventricular internal dimension-systole (LVIDs), and left ventricular posterior wall thickness (LVPWd and LVPWs).
(§7) The detection was performed on a Millar pressure-volume system from Millar Instr Ment PowerLab. After the animals were anesthetized to an appropriate extent, a midline incision was made in the neck, the right common carotid artery was separated, ligated at the distal end and clipped at the proximal end. A V-shaped incision was made on the artery with microscissors, and a microcatheter was inserted to the left ventricle. Signals were recorded through a conduction system to obtain hemodynamic data such as heart rate (HR), left ventricular end diastolic pressure (PED), left ventricular end systolic pressure (PES), maximum rate of decrease in left ventricular pressure (−dp/dtmin), and maximum rate of increase in left ventricular pressure (+dP/dtmax).
(§8) The myocardial tissue was placed in an embedding frame, soaked and fixed in neutral formaldehyde solution, dehydrated, and embedded in paraffin. The paraffin block was then sliced into sections with a thickness of 4 μm on a microtome. The general appearance of the myocardium was observed through HE staining, and the myocardial fibrosis was observed through Sirius red staining.
as §4
(§9) Cardiac ultrasound examination was performed two weeks after TAC surgery. 24 TAC mice with no significant difference in cardiac function were selected and randomly divided into a model group (TAC) and a treatment group (TAC+compound). The model group received no other treatment, while the treatment group received daily gavage (0.2 mg/kg and 0.4 mg/kg for I-1 and I-23 of the present application, and 1.2 mg/kg for glimepiride). Eight weeks later, i.e., at the chronic heart failure phase, the animals were sacrificed, and tissue specimens were collected to perform the above detections.

sEH (human recombinant) = biological target: T2, sEH (human recombinant) (Homo sapiens, UniProt P34913); assay: sEH inhibition assay (fluorescence);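 further: enzyme preincubated with compound 30 min at 25 °C, then substrate added and fluorescence read after 15 min at 25 °C, 320 nm and 460 nm, versus DMSO negative control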
T2 sequence (P34913 1-555): T1 sequence (P34913 1-555)
Procedure: sEH Assay Buffer was purchased from Cayman Chemical; sEH (human recombinant) was purchased from Cayman Chemical; sEH substrate was purchased from Cayman Chemical. The working solution of 20% DMSO for the compounds was prepared by mixing dimethyl sulfoxide with water in a volume ratio of 1:4, and shaking to mix well.
sEH Assay Buffer (10×), SEH (human recombinant) and sEH substrate were thawed on ice.
The sEH Assay Buffer (lux) was prepared into a 1×sEH Assay Buffer with deionized water. 12 μL of sEH was added with 588 µL of 1× Assay Buffer to be diluted 50 times to obtain a sEH working solution. 180 µL of 1× Assay Buffer was added into the corresponding wells; the sEH working solution was added to the corresponding wells at 5 μL/well; the working solution of 20% DMSO for the compounds was added into the corresponding wells at 5 μL/well, and blank wells and negative control wells added with an equal amount of DMSO were set. After centrifuged at 1000 rpm for 1 minute, the wells were incubated at 25° C. for 30 minutes. After incubation, the substrate was added into the 96-wells plate at 5 μL/well and the plate was centrifuged at 1000 rpm for 1 minute. After incubation at 25° C. for 15 minutes, fluorescence values were read at emission wavelengths of 320 nm and 460 nm.

[4] = system: mice with chronic heart failure (TAC); assay: TAC mouse model, comparison of I-23 and Empagliflozin; type: in vivo
Excerpt: as §5, §6, §7, §8, §4
as §9, with “(0.44” for “(0.2 mg/kg and 0.4”, “for” for “for I-1 and”, “or 10” for “of the present application, and 1.2”, “Empagliflozin).” for “glimepiride).”
This experiment was to compare the ameliorative effects of I-23 and Empagliflozin on chronic heart failure.

[5] = biological target: T3, sEH in the hearts of mice with chronic heart failure (Mus musculus, UniProt P34914); assay: sEH enzymic activity in hearts of TAC mice; type: in vivo; conditions: daily gavage 1.2 mg/kg, eight weeks
T3 construct: from tissue; host or cells: heart tissue of male C57BL/6 mice after TAC surgery
T3 sequence (P34914 1-554): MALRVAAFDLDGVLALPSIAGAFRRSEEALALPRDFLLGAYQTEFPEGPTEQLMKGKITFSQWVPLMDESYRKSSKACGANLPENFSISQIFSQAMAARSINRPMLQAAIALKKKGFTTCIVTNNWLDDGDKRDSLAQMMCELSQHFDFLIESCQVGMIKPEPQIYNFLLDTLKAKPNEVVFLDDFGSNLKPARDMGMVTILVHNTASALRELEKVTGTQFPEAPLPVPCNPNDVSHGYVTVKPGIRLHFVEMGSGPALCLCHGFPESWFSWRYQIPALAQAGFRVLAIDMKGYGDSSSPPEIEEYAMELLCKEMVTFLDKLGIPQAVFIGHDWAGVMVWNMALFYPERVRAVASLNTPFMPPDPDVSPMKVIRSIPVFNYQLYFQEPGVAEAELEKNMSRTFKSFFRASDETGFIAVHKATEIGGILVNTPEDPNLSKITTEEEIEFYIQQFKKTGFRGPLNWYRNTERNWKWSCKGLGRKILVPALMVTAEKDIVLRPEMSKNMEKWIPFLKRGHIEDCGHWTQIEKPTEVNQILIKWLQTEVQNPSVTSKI
Procedure: as §2, §5, §9

[6] = I-23 0.44 mg/kg vs Empagliflozin 10 mg/kg
[7] = mice, daily gavage eight weeks, I-23 0.44 mg/kg, Empagliflozin 10 mg/kg

## CCC1=C(C)CN(C(=O)NCCc2ccc(S(=O)(=O)N(C)C(=O)N[C@H]3CC[C@H](C)CC3)cc2)C1=O [Compound I-1]
[1]
  content of DHET in cardiomyocytes: reducing
  content of EETs in cardiomyocytes: significantly increase
[2]
  BNP expression induced by PE (cardiomyocyte remodeling): can inhibit this effect
[3]; eight weeks
  impaired cardiac function (EF value, FS value, dp/dt reduced by TAC): can inhibit this effect
[3]; daily gavage 0.2 and 0.4 mg/kg, eight weeks
  expression of BNP in mouse cardiomyocytes after TAC: can inhibit this effect
[3]
  cross-sectional area of cardiomyocytes, HE staining (myocardial hypertrophy): can inhibit this effect
  positive area of Sirius red staining (myocardial fibrosis): can inhibit this effect
sEH (human recombinant)
  pIC50: 5.00 to 6.00

## Cc1ccc(S(=O)(=O)N(C)C(=O)NN2CC3CCCC3C2)cc1 (stereo not shown) [Compound I-4]
[1]
  content of DHET in cardiomyocytes: reducing
  content of EETs in cardiomyocytes: significantly increase
[2]
  BNP expression induced by PE (cardiomyocyte remodeling): can inhibit this effect
sEH (human recombinant)
  pIC50: 5.00 to 6.00

## CCC1=C(C)CN(C(=O)NCCc2ccc(S(=O)(=O)NC(=O)N[C@H]3CC[C@H](COC(C)=O)CC3)cc2)C1=O [Compound I-23]
[1]
  content of DHET in cardiomyocytes: reducing
  content of EETs in cardiomyocytes: significantly increase
[2]
  BNP expression induced by PE (cardiomyocyte remodeling): can inhibit this effect
[3]; eight weeks
  impaired cardiac function (EF value, FS value, dp/dt reduced by TAC): can inhibit this effect
[3]
  cross-sectional area of cardiomyocytes, HE staining (myocardial hypertrophy): can inhibit this effect
  positive area of Sirius red staining (myocardial fibrosis): can inhibit this effect
[4]; [6]
  effect on cardiac hypertrophy relative to Empagliflozin: comparable to that of Empagliflozin
  effect on impaired cardiac function relative to Empagliflozin: comparable to that of Empagliflozin
[4]; [7]
  cardiac hypertrophy (heart photographs, heart weight/tibia length HW/TL): reversal effect
  expression of BNP in mouse cardiomyocytes after TAC: can inhibit this effect
  impaired cardiac function (EF value, FS value, LVIDs, dp/dt): can inhibit this effect
  positive area of Sirius red staining (myocardial fibrosis): can inhibit this effect
sEH (human recombinant)
  pIC50: 5.00 to 6.00

## CCC1=C(C)CN(C(=O)NCCc2ccc(S(=O)(=O)NC(=O)N[C@H]3CC[C@H](C)CC3)cc2)C1=O [glimepiride, reference compound]
[1]; effect increases as the concentration increases
  inhibitory effect on enzymic activity of sEH in cardiomyocytes: significant inhibitory effect
[2]
  BNP expression induced by PE (cardiomyocyte remodeling): can inhibit this effect
[3]; daily gavage 1.2 mg/kg, eight weeks
  impaired cardiac function (EF value and dp/dt reduced by TAC): can inhibit this effect
[3]
  cross-sectional area of cardiomyocytes, HE staining (myocardial hypertrophy): can inhibit this effect
  positive area of Sirius red staining (myocardial fibrosis): can inhibit this effect
[5]
  increase of sEH enzymic activity in the hearts after TAC: could inhibit this effect
